In patent US20140024683A1, “CHLORIDE CHANNEL AND CHLORIDE TRANSPORTER MODULATORS FOR THERAPY IN SMOOTH MUSCLE DISEASES” (priority 2011, published 2014):

Columns and labels:
[1] = system: guinea pig tracheal rings; test: Attenuation of the initiation of an acetylcholine contraction by pretreatment, guinea pig tracheal rings; details: pretreatment with single agent alone
Method: Animal protocols were approved by the Columbia University Animal Care and Use Committee. Male Hartley guinea pigs weighing approximately 400 g were anesthetized with intraperitoneal injection of sodium pentobarbital (100 mg/kg). Trachea were removed and transferred to ice cold Krebs-Henseleit (KH) buffer of the following composition (in mM): NaCl 118, KCl 5.6, CaCl2 0.5, MgSO4 0.24, NaH2PO4 1.3, NaHCO3 25, glucose 5.6, pH 7.4. Epithelial-denuded tracheal rings were prepared using a dissecting microscope. Epithelium was removed by gently passing cotton fibers through the lumen of the tracheal rings. The rings were suspended in 4 mL-water jacketed organ baths (37° C.: Radnoti Glass Technology, Monrovia, Calif.) and connected to a Grass FT03 force transducer (Grass Telefactor, West Warwick, R.I.) using silk sutures. The transducers were coupled to the computer with BioPac hardware and data was collected using Acqknowledge 7.3.3 software (BioPac Systems, Goleta, Calif.). KH buffer was bubbled with a gas mixture of 95% oxygen and 5% carbon dioxide and buffer was exchanged every 15 minutes for 1 hour during equilibration of tracheal rings at 1 g resting tension. […].
Compounds 1 and 13 were tested for their abilities to attenuate the initiation phase of an acetylcholine contraction, as acetylcholine is a natural bronchoconstrictor and prevention of contraction would have clinical utility. […]

[2] = system: human airway smooth muscle cells; test: Whole cell current clamp recording of membrane potential; assay type: cell-based
Method: Induced electrophysiological changes in membrane potential and current were measured using traditional whole cell patch clamp methods. Immortalized human airway smooth muscle cells were grown to confluence on collagen-treated T25 flasks. Collagenase type IV in SmBM2 medium (Lonza, Walkersville, Md.) was used to release cells adherent to the collagen matrix in the flask. Medium with cells in suspension was then harvested in a 10-ml conical tube and centrifuged at 300×g. Supernatant was removed, and the pellet was resuspended in SmBM2 medium and transferred into collagen-treated glass bottom 1-cm Petri dishes at about 10% confluence. Each dish was then incubated at 37° C. and 5% CO2 for 1-4 hours for reattachment of cells to glass-bottom Petri dishes.
Glass-bottom dishes served as a disposable recording chamber. ALA VM-8, an 8-chamber pressure-driven drug application system, was used in a still bath of extracellular salt solution. Whole-cell intracellular voltage recordings under current clamp conditions were performed with a 2-kHz Bessel filter, recording at 10 kHz using an Axopatch 200b amplifier (Axon Instruments, Foster City, Calif., USA). Electrodes were pulled using a P-97 micropipette puller from 1.5-mm OD borosilicate capillary glass (Sutter Instruments, Novato, Calif., USA). Glass electrode resistances ranged from 5 to 10 MO with intracellular solution. Whole-cell intracellular current recordings under voltage-clamp conditions were performed with a 2-kHz Bessel filter, recording at 10 kHz using an Axopatch 200b amplifier. For current measurements (FIG. 11) intracellular solutions consisted of (in mM) 140 TEA-Cl, 5 MgATP, 5 EGTA, 1 MgCl2, 10 HEPES, and 5 CaCl2 (pH 7.2). Extracellular solution consisted of (in mM) 134 NaCl, 1.4 KCl, 10 HEPES, 1 MgCl2, 1.8 CaCl2, and 10 glucose (pH 7.4). This induced the classic spontaneously transient inward currents (STICs) and spontaneously transient outward currents (STOCs) well described in this cell type. STOCs are believed to represent activation of calcium activated potassium (KCa) channels while STICs are believed to represent activation of CaCCs. TEA-Cl was included in the buffer to enhance STICs which were then recorded during the addition of 100 μM niflumic acid. When recording TEA- and niflumic acid-induced responses on membrane potential (ΔmV), the intracellular solutions contained (in mM) 140 KCl, 5 MgATP, 5 EGTA, 1 MgCl2, 10 HEPES, and 5 CaCl2 (pH 7.2), and the extracellular solutions consisted of (in mM) 134 NaCl, 5 MgATP, 5 EGTA, 1 MgCl2, 10 HEPES, and 5 CaCl2 (pH 7.2). All recordings were analyzed on Clampfit 8.0 software (Molecular Devices).

Row | Structure (SMILES) | attenuation of the initiation of an acetylcholine contraction [1] | membrane potential (whole cell current clamp) ([2]; 100 μM niflumic acid) | membrane potential (whole cell current clamp) after depolarization ([2]; following depolarization with TEA chloride)
1 | CCCCNc1cc(C(=O)O)cc(S(N)(=O)=O)c1Oc1ccccc1 [bumetanide] | failed to significantly attenuate a contraction |  | 
2 | O=C(O)c1cccnc1Nc1cccc(C(F)(F)F)c1 [niflumic acid] |  | hyperpolarizes the plasma membrane | reverses membrane potential
